Source: PubChem BioAssay (NCI)
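In this assay, cells in 96-well plates receive the compound at five concentrations for 48 hours. Endpoints are linearly interpolated between the surrounding concentrations. GI50: concentration for 50% inhibition of growth. TGI is the concentration that stops growth completely.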

Columns and labels:
Test in all cases: growth of human tumour cells (NCI), 48 h
[1] = system: 786-0 renal
[2] = system: A498 renal
[3] = system: A549 NSCLC
[4] = system: ACHN renal
[5] = system: BT-549 breast
[6] = system: CAKI-1 renal
[7] = system: CCRF-CEM leukemia
[8] = system: COLO 205 colon
[9] = system: DU-145 prostate
[10] = system: EKVX NSCLC
[11] = system: HCC-2998 colon
[12] = system: HCT-116 colon
[13] = system: HCT-15 colon
[14] = system: HL-60(TB) leukemia
[15] = system: HOP-62 NSCLC
[16] = system: HOP-92 NSCLC
[17] = system: HS 578T breast
[18] = system: HT29 colon
[19] = system: IGROV1 ovarian
[20] = system: K-562 leukemia
[21] = system: KM12 colon
[22] = system: LOX IMVI melanoma
[23] = system: M14 melanoma
[24] = system: MALME-3M melanoma
[25] = system: MCF7 breast
[26] = system: MDA-MB-231 breast
[27] = system: MDA-MB-435
[28] = system: MOLT-4 leukemia
[29] = system: NCI-H226 lung
[30] = system: NCI-H23 lung
[31] = system: NCI-H460 lung
[32] = system: NCI-H522 lung
[33] = system: NCI/ADR-RES ovarian
[34] = system: OVCAR-3 ovarian
[35] = system: OVCAR-4 ovarian
[36] = system: OVCAR-5 ovarian
[37] = system: OVCAR-8 ovarian
[38] = system: PC-3 prostate
[39] = system: RPMI-8226 leukemia
[40] = system: RXF 393 renal
[41] = system: SF-268 CNS
[42] = system: SF-295 CNS
[43] = system: SF-539 CNS
[44] = system: SK-MEL-2 melanoma
[45] = system: SK-MEL-28 melanoma
[46] = system: SK-MEL-5 melanoma
[47] = system: SK-OV-3 ovarian
[48] = system: SN12C renal
[49] = system: SNB-19 CNS
[50] = system: SNB-75 CNS
[51] = system: SR leukemia
[52] = system: SW-620 colon
[53] = system: T-47D breast
[54] = system: TK-10 renal
[55] = system: U251 CNS
[56] = system: UACC-257 melanoma
[57] = system: UACC-62 melanoma
[58] = system: UO-31 renal

NS(=O)(=O)c1ccc(Nc2ncc(-c3ccccc3)o2)cc1
GI50 [1]: > 25 µM | TGI [1]: > 25 µM | GI50 [2]: > 19.6 µM | TGI [2]: > 25 µM | GI50 [3]: > 25 µM | TGI [3]: > 25 µM | GI50 [4]: > 25 µM | TGI [4]: > 25 µM | GI50 [5]: > 25 µM | TGI [5]: > 25 µM | GI50 [6]: > 25 µM | TGI [6]: > 25 µM | GI50 [7]: > 25 µM | TGI [7]: > 25 µM | GI50 [8]: > 23.7 µM | TGI [8]: > 25 µM | GI50 [9]: > 25 µM | TGI [9]: > 25 µM | GI50 [10]: > 25 µM | TGI [10]: > 25 µM | GI50 [11]: > 25 µM | TGI [11]: > 25 µM | GI50 [12]: > 25 µM | TGI [12]: > 25 µM | GI50 [13]: > 25 µM | TGI [13]: > 25 µM | GI50 [14]: > 25 µM | TGI [14]: > 25 µM | GI50 [15]: > 25 µM | TGI [15]: > 25 µM | GI50 [16]: > 25 µM | TGI [16]: > 25 µM | GI50 [17]: 20.5 µM | TGI [17]: > 25 µM | GI50 [18]: > 25 µM | TGI [18]: > 25 µM | GI50 [19]: > 25 µM | TGI [19]: > 25 µM | GI50 [20]: > 25 µM | TGI [20]: > 25 µM | GI50 [21]: > 25 µM | TGI [21]: > 25 µM | GI50 [22]: > 25 µM | TGI [22]: > 25 µM | GI50 [23]: > 25 µM | TGI [23]: > 25 µM | GI50 [24]: > 25 µM | TGI [24]: > 25 µM | GI50 [25]: > 25 µM | TGI [25]: > 25 µM | GI50 [26]: > 25 µM | TGI [26]: > 25 µM | GI50 [27]: > 25 µM | TGI [27]: > 25 µM | GI50 [28]: > 25 µM | TGI [28]: > 25 µM | GI50 [29]: > 25 µM | TGI [29]: > 25 µM | GI50 [30]: > 25 µM | TGI [30]: > 25 µM | GI50 [31]: > 25 µM | TGI [31]: > 25 µM | GI50 [32]: > 25 µM | TGI [32]: > 25 µM | GI50 [33]: > 25 µM | TGI [33]: > 25 µM | GI50 [34]: > 25 µM | TGI [34]: > 25 µM | GI50 [35]: > 25 µM | TGI [35]: > 25 µM | GI50 [36]: > 25 µM | TGI [36]: > 25 µM | GI50 [37]: > 25 µM | TGI [37]: > 25 µM | GI50 [38]: > 25 µM | TGI [38]: > 25 µM | GI50 [39]: > 25 µM | TGI [39]: > 25 µM | GI50 [40]: > 25 µM | TGI [40]: > 25 µM | GI50 [41]: > 25 µM | TGI [41]: > 25 µM | GI50 [42]: > 25 µM | TGI [42]: > 25 µM | GI50 [43]: > 22.9 µM | TGI [43]: > 25 µM | GI50 [44]: > 25 µM | TGI [44]: > 25 µM | GI50 [45]: > 25 µM | TGI [45]: > 25 µM | GI50 [46]: > 25 µM | TGI [46]: > 25 µM | GI50 [47]: > 25 µM | TGI [47]: > 25 µM | GI50 [48]: > 25 µM | TGI [48]: > 25 µM | GI50 [49]: > 25 µM | TGI [49]: > 25 µM | GI50 [50]: > 9.68 µM | TGI [50]: > 25 µM | GI50 [51]: 9.69 µM | TGI [51]: > 25 µM | GI50 [52]: > 22.1 µM | TGI [52]: > 25 µM | GI50 [53]: > 25 µM | TGI [53]: > 25 µM | GI50 [54]: > 25 µM | TGI [54]: > 25 µM | GI50 [55]: > 25 µM | TGI [55]: > 25 µM | GI50 [56]: > 25 µM | TGI [56]: > 25 µM | GI50 [57]: > 25 µM | TGI [57]: > 25 µM | GI50 [58]: > 25 µM | TGI [58]: > 25 µM
